Measured values as given in patent US20050079152A1, “Methods of elicit, enhance and sustain immune responses against MHC class I-restricted epitopes, for prophylactic or therapeutic purposes” (priority 2003, published 2005).

Tested on: SSX241-49 epitope specific T cells
Assay: SSX2 tetramer staining in immunized mice
Format: in vivo
Conditions: for SSX2 antigen specificity, % of the available CD8 T cells (tetramer): entrained with pCBP plasmid, amplified with peptide analogue; for cross-reactivity with T cells specific for the SSX241-49 epitope: mouse, in vivo
Text: These analogues are cross-reactive with T cells specific for the SSX241-49 epitope. These examples illustrate that the entrain-and-amplify protocol can elicit a SSX2 antigen specificity that approaches 80% of the available CD8 T cells. The pCBP plasmid and principles of its design are disclosed in U.S. patent application Ser. No. 10/292,413 (Pub. No. 20030228634 A1) entitled EXPRESSION VECTORS ENCODING EPITOPES OF TARGET-ASSOCIATED ANTIGENS AND METHODS FOR THEIR DESIGN, which is hereby incorporated by reference in its entirety. Additional methodology, compositions, peptides, and peptide analogues are disclosed in U.S. Provisional Application No. ______, (Attorney Docket MANNK.038PR), filed on the same date as the instant application, entitled “SSX-2 PEPTIDE ANALOGS;” which is incorporated herein by reference in its entirety. Further methodology, compositions, peptides., and peptide analogues are disclosed in U.S. Provisional Application No. ______, (Attorney Docket MANNK.039PR), filed on the same date as the instant application, entitled “NY-ESO PEPTIDE ANALOGS;” which is incorporated herein by reference in its entirety.

| Substance | SSX2 antigen specificity, % of the available CD8 T cells (tetramer) | cross-reactivity with T cells specific for the SSX241-49 epitope |
| --- | --- | --- |
| K41Y: K41Y peptide analogue of SSX2-derived epitope KASEKIFYV (SSX2 41-49) (YASEKIFYV) | ~80% | cross-reactive |
| SSX241-49 K41F: K41F peptide analogue of SSX2-derived epitope KASEKIFYV (SSX2 41-49) (FASEKIFYV) | ~80% | cross-reactive |
